Measurements from patent publication US10091997B2, “Composition for inhibition of insect host sensing” (Vanderbilt University, priority 2010, dated 2018).

Assays:
AgORco = target: T1, AgORco (Anopheles gambiae, UniProt Q7QCC7); assay: whole-cell patch clamp, HEK293 cells stably expressing AgORco alone; assay type: cell-based; settings: for whole-cell currents: AgORco alone cells, clamped at −60 mV
T1 construct: expressed in transfected cells
T1 sequence (Q7QCC7 1-478): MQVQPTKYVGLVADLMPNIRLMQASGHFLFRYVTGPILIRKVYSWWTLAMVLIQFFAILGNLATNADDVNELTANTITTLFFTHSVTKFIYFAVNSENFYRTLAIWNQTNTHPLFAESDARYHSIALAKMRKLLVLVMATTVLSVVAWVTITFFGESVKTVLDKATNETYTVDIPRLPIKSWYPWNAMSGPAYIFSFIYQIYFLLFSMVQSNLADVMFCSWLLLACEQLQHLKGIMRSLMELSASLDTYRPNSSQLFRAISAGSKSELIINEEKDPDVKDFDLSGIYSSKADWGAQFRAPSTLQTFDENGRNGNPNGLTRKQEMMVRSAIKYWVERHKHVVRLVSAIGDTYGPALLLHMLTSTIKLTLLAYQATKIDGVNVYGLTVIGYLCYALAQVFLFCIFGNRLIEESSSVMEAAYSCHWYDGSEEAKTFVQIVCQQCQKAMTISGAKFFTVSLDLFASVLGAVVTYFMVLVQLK
Description: (§1) Currents from OR-expressing HEK293 cells were amplified with an Axopatch 200b Amplifier (Axon Instruments) and digitized through a Digidata 1322A (Axon Instruments). Electrophysiological data was recorded and analyzed using pCLAMP 10 (Axon Instruments). Electrodes were fabricated from quartz tubing (Sutter Instruments) and pulled to 4-6 MΩ for whole cell recording. Electrodes were filled with internal solution (120 mM KCl, 30 mM D-glucose, 10 mM HEPES, 2 mM MgCl2, 1.1 mM EGTA, and 0.1 CaCl2 (pH 7.35, 280 mOsm). External (bath) solution contained 130 mM NaCl, 34 mM D-glucose, 10 mM HEPES, 1.5 mM CaCl2, 1.3 mM KH2PO4, and 0.5 MgSO4 (pH 7.35, 300 mOsm). Compounds were diluted in external solution and locally perfused to the recording cell using Perfusion Pencil (Automate Scientific) and controlled by a ValveLink 8.2 controller (Automate Scientific). Whole cell recordings were sampled at 10 kHz and filtered at 5 kHz. Outside-out patches were obtained using 10-15MΩ electrodes pulled from standard glass capillaries (World Precision Instruments) and fire-polished with an MF-830 micro forge (Narishige). Single channel recordings were sampled at 20 kHz. Recordings were reduced to 1 kHz and low-pass filtered at 500 Hz for display and analysis using QuB (SUNY at Buffalo).
(§2) To test the hypothesis that VUAA1 directly agonized AgORco, whole-cell patch clamp responses were examined in AgORco+AgOR10 expressing cells as well HEK293 cells stably expressing AgORco alone. […] The VUAA1-dependent currents in AgORco+AgOR10 cells resembled those resulting from application of benzaldehyde, an orthosteric agonist of AgOR10 (FIG. 3C) (Wang, 2010; Carey, 2010). AgORco+AgOR10 cells were more sensitive to VUAA1 than AgORco cells, producing inward currents at −5.0 log M, a concentration at which AgORco had no response. […] To investigate the specificity of VUAA1 agonism, the inventors transiently transfected HEK cells with the AgORco orthologs of Drosophila melanogaster and Heliothis virescens, DmOR83b and HvOR2 respectively.

AgORco+AgOR10 = assay: whole-cell patch clamp, HEK293 cells expressing AgORco+AgOR10; assay type: cell-based, Anopheles gambiae; settings: for whole-cell currents: AgORco+AgOR10 cells, clamped at −60 mV
Description: as §1, §2

[1] = test system: Un-transfected HEK293 cells; assay: whole-cell patch clamp, control HEK293 cells (un-transfected or GFP alone); assay type: cell-based, human
Description: as §1

[2] = target: T2, rat transient receptor potential vanilloid 1 (rTRPV1) (Rattus norvegicus, UniProt O35433); assay: whole-cell patch clamp, HEK cells stably expressing rTRPV1; assay type: cell-based
T2 construct: expressed in transfected cells
T2 sequence (O35433 whole entry): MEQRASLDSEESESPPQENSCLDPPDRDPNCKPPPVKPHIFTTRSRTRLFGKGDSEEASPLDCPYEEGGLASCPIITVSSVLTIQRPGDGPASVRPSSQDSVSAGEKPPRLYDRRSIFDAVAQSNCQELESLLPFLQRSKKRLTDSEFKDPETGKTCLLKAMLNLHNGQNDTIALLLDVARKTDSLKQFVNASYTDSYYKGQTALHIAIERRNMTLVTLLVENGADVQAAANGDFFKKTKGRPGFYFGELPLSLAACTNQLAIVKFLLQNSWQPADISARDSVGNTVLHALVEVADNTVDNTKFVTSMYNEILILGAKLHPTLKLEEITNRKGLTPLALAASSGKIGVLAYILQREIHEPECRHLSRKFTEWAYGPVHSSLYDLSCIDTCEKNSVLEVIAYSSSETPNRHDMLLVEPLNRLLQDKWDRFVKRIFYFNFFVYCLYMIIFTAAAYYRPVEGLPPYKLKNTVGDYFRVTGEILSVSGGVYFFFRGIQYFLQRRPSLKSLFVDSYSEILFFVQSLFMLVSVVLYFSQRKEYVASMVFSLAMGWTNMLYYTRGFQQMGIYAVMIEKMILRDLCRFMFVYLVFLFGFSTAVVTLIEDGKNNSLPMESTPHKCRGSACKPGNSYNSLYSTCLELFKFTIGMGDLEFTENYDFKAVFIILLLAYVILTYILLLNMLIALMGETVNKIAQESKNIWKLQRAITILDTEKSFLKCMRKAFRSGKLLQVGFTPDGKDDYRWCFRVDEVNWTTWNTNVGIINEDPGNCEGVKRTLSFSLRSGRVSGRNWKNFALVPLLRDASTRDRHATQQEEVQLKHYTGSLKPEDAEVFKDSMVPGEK
Description: To determine the broad-spectrum specificity of VUAA1, the inventors tested VUAA1 on another non-selective cation channel, transient receptor potential vanilloid receptor 1 (TRPV1) (Caterina, 1997; Bohlen, 2010).

Compound	whole-cell currents (AgORco)	whole-cell currents (AgORco+AgOR10)	other results
Nc1ncnc2c1nc(Br)n2[C@@H]1O[C@@H]2COP(=O)(O)O[C@H]2[C@H]1O [8-Br cAMP]	unable to evoke whole-cell currents	unable to evoke whole-cell currents	–
N.N.N.N.N.N.N.N.N.N.N.N.N.N.[Cl-].[Cl-].[Cl-].[Cl-].[Cl-].[Cl-].[O-2].[O-2].[Ru+3].[Ru+3].[Ru+4] [RR, ruthenium red]	–	–	reduction of VUAA1 responses (AgORco; AgORco cells, agonist VUAA1): 79.4±4.0%; reduction of VUAA1-elicited currents (AgORco+AgOR10; AgOrco+AgOR10 cells, agonist VUAA1): 68.3±2.8%; reduction of benzaldehyde-elicited currents (AgORco+AgOR10; AgOrco+AgOR10 cells, agonist benzaldehyde): 87.8±1.8%
Nc1nc2c(nc(Br)n2[C@@H]2O[C@@H]3COP(=O)(O)O[C@H]3[C@H]2O)c(=O)[nH]1 [8-Br cGMP]	unable to evoke whole-cell currents	unable to evoke whole-cell currents	–
O=Cc1ccccc1 [benzaldehyde, reference compound]	only AgORco+AgOR10 cells responded to BA	concentration-dependent responses	whole-cell currents in GFP alone cells ([1]; HEK cells transfected with GFP alone): no currents; whole-cell currents in control cells ([1]; control / un-transfected HEK293 cells): did not respond
COc1cc(CNC(=O)CCCC/C=C/C(C)C)ccc1O [Capsaicin, reference compound]	–	–	whole-cell currents [2]: elicited a robust response
